System: subjects with AK on the face or scalp
Assay: Phase 2a study KX01-AK-002: local skin reactions (grade 0 not present to 4 worst) and adverse events, 0.5 mg KX-01 on 25 cm^2
Assay type: in vivo, human
Description: An ongoing Phase 2a, open-label, multicenter, activity and safety study of KX-01 administered topically in subjects with AK on the face or scalp is described herein. […] Secondary objectives are to assess the activity of KX-01 administered topically during Days 1-57 based on reduction of AK lesion counts from baseline, assess the safety and tolerability and pharmacokinetics, and contrast the dose regimens (5-day treatment with 3-day treatment) in terms of activity and safety in subjects with AK on the face or scalp. This uncontrolled, nonrandomized trial is being conducted at 16 investigational sites in the United States. Enrollment is sequential for 2 cohorts of approximately 80 subjects each. Enrollment is closed for Cohort 1 and ongoing for Cohort 2. The two treatment cohorts are summarized below: • Cohort 1: 0.5 mg KX-01 administered topically to a contiguous treatment area of 25 cm^2 with 4-8 clinically typical AK lesions for 5 consecutive days • Cohort 2: 0.5 mg KX-01 administered topically to a contiguous treatment area of 25 cm^2 with 4-8 clinically typical AK lesions for 3 consecutive days
0.5 mg KX-01 is administered topically to an area of 25 cm^2 on the face or scalp by site staff on treatment days. […] AK lesion counts are recorded at baseline, days 8, 15, 29, and 57. […] Standardized photography of treatment area is performed at baseline, day 8 and day 57. Plasma samples are being collected at preplanned time points on days 1 and 5 for Cohort 1, and on days 1 and 3 for Cohort 2.
Absence or presence of hyperpigmentation, hypopigmentation and scarring are also assessed. Application site reactions not classified as LSRs are reported as AEs. […] LSRs and AEs are reported separately. All LSRs, pigmentation, and scarring in the treatment area will be followed to resolution or stabilization.
The range of possible composite scores is 0-24.
The Phase 2a trial described in Example 2a was completed with 84 eligible subjects enrolled in each of two cohorts: one cohort was subjected to the treatment for 5 consecutive days, and the other cohort was subjected to the treatment for 3 consecutive days. The results are described below and in FIG. 5.

O=C(Cc1ccc(-c2ccc(OCCN3CCOCC3)cc2)cn1)NCc1ccccc1 [KX-01]
Vesiculation/Pustulation grade 0, n/N subjects (Day 3, Cohort 1 (5-day)): 67/67
Vesiculation/Pustulation grade 1, n/N subjects (Day 3, Cohort 1 (5-day)): 0
Vesiculation/Pustulation grade 2, n/N subjects (Day 3, Cohort 1 (5-day)): 0
Vesiculation/Pustulation grade 3, n/N subjects (Day 3, Cohort 1 (5-day)): 0
Vesiculation/Pustulation grade 4, n/N subjects (Day 3, Cohort 1 (5-day)): 0
Crusting grade 0, n/N subjects (Day 4, Cohort 1 (5-day)): 61/67
Crusting grade 1, n/N subjects (Day 4, Cohort 1 (5-day)): 4/67
Crusting grade 2, n/N subjects (Day 4, Cohort 1 (5-day)): 2/67
Crusting grade 3, n/N subjects (Day 4, Cohort 1 (5-day)): 0
Crusting grade 4, n/N subjects (Day 4, Cohort 1 (5-day)): 0
Erosion/Ulceration grade 0, n/N subjects (Day 4, Cohort 1 (5-day)): 65/67
Erosion/Ulceration grade 1, n/N subjects (Day 4, Cohort 1 (5-day)): 2/67
Erosion/Ulceration grade 2, n/N subjects (Day 4, Cohort 1 (5-day)): 0
Erosion/Ulceration grade 3, n/N subjects (Day 4, Cohort 1 (5-day)): 0
Erosion/Ulceration grade 4, n/N subjects (Day 4, Cohort 1 (5-day)): 0
Erythema grade 0, n/N subjects (Day 4, Cohort 1 (5-day)): 19/67
Erythema grade 1, n/N subjects (Day 4, Cohort 1 (5-day)): 26/67
Erythema grade 2, n/N subjects (Day 4, Cohort 1 (5-day)): 17/67
Erythema grade 3, n/N subjects (Day 4, Cohort 1 (5-day)): 5/67
Erythema grade 4, n/N subjects (Day 4, Cohort 1 (5-day)): 0
Flaking/Scaling grade 0, n/N subjects (Day 4, Cohort 1 (5-day)): 43/67
Flaking/Scaling grade 1, n/N subjects (Day 4, Cohort 1 (5-day)): 16/67
Flaking/Scaling grade 2, n/N subjects (Day 4, Cohort 1 (5-day)): 5/67
Flaking/Scaling grade 3, n/N subjects (Day 4, Cohort 1 (5-day)): 3/67
Flaking/Scaling grade 4, n/N subjects (Day 4, Cohort 1 (5-day)): 0
Swelling grade 0, n/N subjects (Day 4, Cohort 1 (5-day)): 65/67
Swelling grade 1, n/N subjects (Day 4, Cohort 1 (5-day)): 2/67
Swelling grade 2, n/N subjects (Day 4, Cohort 1 (5-day)): 0
Swelling grade 3, n/N subjects (Day 4, Cohort 1 (5-day)): 0
Swelling grade 4, n/N subjects (Day 4, Cohort 1 (5-day)): 0
Vesiculation/Pustulation grade 0, n/N subjects (Day 4, Cohort 1 (5-day)): 66/67
Vesiculation/Pustulation grade 1, n/N subjects (Day 4, Cohort 1 (5-day)): 1/67
Vesiculation/Pustulation grade 2, n/N subjects (Day 4, Cohort 1 (5-day)): 0
Vesiculation/Pustulation grade 3, n/N subjects (Day 4, Cohort 1 (5-day)): 0
Vesiculation/Pustulation grade 4, n/N subjects (Day 4, Cohort 1 (5-day)): 0
Crusting grade 0, n/N subjects (Day 5, Cohort 1 (5-day)): 56/67
Crusting grade 1, n/N subjects (Day 5, Cohort 1 (5-day)): 9/67
Crusting grade 2, n/N subjects (Day 5, Cohort 1 (5-day)): 2/67
Crusting grade 3, n/N subjects (Day 5, Cohort 1 (5-day)): 0
Crusting grade 4, n/N subjects (Day 5, Cohort 1 (5-day)): 0
Erosion/Ulceration grade 0, n/N subjects (Day 5, Cohort 1 (5-day)): 61/67
Erosion/Ulceration grade 1, n/N subjects (Day 5, Cohort 1 (5-day)): 6/67
Erosion/Ulceration grade 2, n/N subjects (Day 5, Cohort 1 (5-day)): 0
Erosion/Ulceration grade 3, n/N subjects (Day 5, Cohort 1 (5-day)): 0
Erosion/Ulceration grade 4, n/N subjects (Day 5, Cohort 1 (5-day)): 0
Erythema grade 0, n/N subjects (Day 5, Cohort 1 (5-day)): 12/67
Erythema grade 1, n/N subjects (Day 5, Cohort 1 (5-day)): 19/67
Erythema grade 2, n/N subjects (Day 5, Cohort 1 (5-day)): 27/67
Erythema grade 3, n/N subjects (Day 5, Cohort 1 (5-day)): 9/67
Erythema grade 4, n/N subjects (Day 5, Cohort 1 (5-day)): 0
Flaking/Scaling grade 0, n/N subjects (Day 5, Cohort 1 (5-day)): 35/67
Flaking/Scaling grade 1, n/N subjects (Day 5, Cohort 1 (5-day)): 21/67
Flaking/Scaling grade 2, n/N subjects (Day 5, Cohort 1 (5-day)): 9/67
Flaking/Scaling grade 3, n/N subjects (Day 5, Cohort 1 (5-day)): 2/67
Flaking/Scaling grade 4, n/N subjects (Day 5, Cohort 1 (5-day)): 0
Swelling grade 0, n/N subjects (Day 5, Cohort 1 (5-day)): 58/67
Swelling grade 1, n/N subjects (Day 5, Cohort 1 (5-day)): 7/67
Swelling grade 2, n/N subjects (Day 5, Cohort 1 (5-day)): 1/67
Swelling grade 3, n/N subjects (Day 5, Cohort 1 (5-day)): 1/67
Swelling grade 4, n/N subjects (Day 5, Cohort 1 (5-day)): 0
Vesiculation/Pustulation grade 0, n/N subjects (Day 5, Cohort 1 (5-day)): 65/67
Vesiculation/Pustulation grade 1, n/N subjects (Day 5, Cohort 1 (5-day)): 2/67
Vesiculation/Pustulation grade 2, n/N subjects (Day 5, Cohort 1 (5-day)): 0
Vesiculation/Pustulation grade 3, n/N subjects (Day 5, Cohort 1 (5-day)): 0
Vesiculation/Pustulation grade 4, n/N subjects (Day 5, Cohort 1 (5-day)): 0
Crusting grade 0, n/N subjects (Day 8, Cohort 1 (5-day)): 51/67
Crusting grade 1, n/N subjects (Day 8, Cohort 1 (5-day)): 15/67
Crusting grade 2, n/N subjects (Day 8, Cohort 1 (5-day)): 1/67
Crusting grade 3, n/N subjects (Day 8, Cohort 1 (5-day)): 0
Crusting grade 4, n/N subjects (Day 8, Cohort 1 (5-day)): 0
Erosion/Ulceration grade 0, n/N subjects (Day 8, Cohort 1 (5-day)): 65/67
Erosion/Ulceration grade 1, n/N subjects (Day 8, Cohort 1 (5-day)): 1/67
Erosion/Ulceration grade 2, n/N subjects (Day 8, Cohort 1 (5-day)): 1/67
Erosion/Ulceration grade 3, n/N subjects (Day 8, Cohort 1 (5-day)): 0
Erosion/Ulceration grade 4, n/N subjects (Day 8, Cohort 1 (5-day)): 0
Erythema grade 0, n/N subjects (Day 8, Cohort 1 (5-day)): 14/67
Erythema grade 1, n/N subjects (Day 8, Cohort 1 (5-day)): 24/67
Erythema grade 2, n/N subjects (Day 8, Cohort 1 (5-day)): 25/67
Erythema grade 3, n/N subjects (Day 8, Cohort 1 (5-day)): 4/67
Erythema grade 4, n/N subjects (Day 8, Cohort 1 (5-day)): 0
Flaking/Scaling grade 0, n/N subjects (Day 8, Cohort 1 (5-day)): 26/67
Flaking/Scaling grade 1, n/N subjects (Day 8, Cohort 1 (5-day)): 18/67
Flaking/Scaling grade 2, n/N subjects (Day 8, Cohort 1 (5-day)): 15/67
Flaking/Scaling grade 3, n/N subjects (Day 8, Cohort 1 (5-day)): 8/67
Flaking/Scaling grade 4, n/N subjects (Day 8, Cohort 1 (5-day)): 0
Swelling grade 0, n/N subjects (Day 8, Cohort 1 (5-day)): 64/67
Swelling grade 1, n/N subjects (Day 8, Cohort 1 (5-day)): 3/67
Swelling grade 2, n/N subjects (Day 8, Cohort 1 (5-day)): 0
Swelling grade 3, n/N subjects (Day 8, Cohort 1 (5-day)): 0
Swelling grade 4, n/N subjects (Day 8, Cohort 1 (5-day)): 0
Vesiculation/Pustulation grade 0, n/N subjects (Day 8, Cohort 1 (5-day)): 67/67
Vesiculation/Pustulation grade 1, n/N subjects (Day 8, Cohort 1 (5-day)): 0
Vesiculation/Pustulation grade 2, n/N subjects (Day 8, Cohort 1 (5-day)): 0
